Key:
Experiment in all cases: relative viability (nuclei count vs DMSO), 5 days (fraction); higher = more cells survive
Venetoclax + Crizotinib = compound: CC1(C)CCC(CN2CCN(c3ccc(C(=O)NS(=O)(=O)c4ccc(NCC5CCOCC5)c([N+](=O)[O-])c4)c(Oc4cnc5[nH]ccc5c4)c3)CC2)=C(c2ccc(Cl)cc2)C1 [Venetoclax] + C[C@@H](Oc1cc(-c2cnn(C3CCNCC3)c2)cnc1N)c1c(Cl)ccc(F)c1Cl [Crizotinib] (partner 1 µM)
Method in brief: (§1)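 Lung cancer cell lines, seeded in 1536-well plates, were treated the following day by pin tool with a single drug or with five library-drug doses (not always all listed) in √10 steps on top of a fixed anchor-drug dose. Cells were fixed and nuclei stained in one step after 5 days, and nuclei were counted. Relative viability is the nuclei count for treated wells divided by that for vehicle wells, reported as medians of duplicate plates.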

Selumetinib + Vorinostat = compound: Cn1cnc2c(F)c(Nc3ccc(Br)cc3Cl)c(C(=O)NOCCO)cc21 [Selumetinib] + O=C(CCCCCCC(=O)Nc1ccccc1)NO [Vorinostat] (partner 1 µM)
Method in brief: as §1

Selumetinib + Tozasertib = compound: Cn1cnc2c(F)c(Nc3ccc(Br)cc3Cl)c(C(=O)NOCCO)cc21 [Selumetinib] + Cc1cc(Nc2cc(N3CCN(C)CC3)nc(Sc3ccc(NC(=O)C4CC4)cc3)n2)n[nH]1 [Tozasertib] (partner 0.1 µM)
Method in brief: as §1

Venetoclax + Decitabine = compound: CC1(C)CCC(CN2CCN(c3ccc(C(=O)NS(=O)(=O)c4ccc(NCC5CCOCC5)c([N+](=O)[O-])c4)c(Oc4cnc5[nH]ccc5c4)c3)CC2)=C(c2ccc(Cl)cc2)C1 [Venetoclax] + Nc1ncn([C@H]2C[C@H](O)[C@@H](CO)O2)c(=O)n1 [Decitabine] (partner 2 µM)
Method in brief: as §1

Cell Line: NCI-H23
- relative viability (Venetoclax + Crizotinib; first compound 0.01 µM): 0.488
- relative viability (Venetoclax + Crizotinib; first compound 0.03162 µM): 0.491
- relative viability (Venetoclax + Crizotinib; first compound 0.1 µM): 0.353
- relative viability (Venetoclax + Crizotinib; first compound 0.3162 µM): 0.507
- relative viability (Venetoclax + Crizotinib; first compound 1 µM): 0.394
- relative viability (Selumetinib + Vorinostat; first compound 0.02 µM): 0.649
- relative viability (Selumetinib + Vorinostat; first compound 0.06325 µM): 0.561
- relative viability (Selumetinib + Vorinostat; first compound 0.2 µM): 0.557
- relative viability (Selumetinib + Vorinostat; first compound 0.6325 µM): 0.668
- relative viability (Selumetinib + Tozasertib; first compound 0.02 µM): 0.36
- relative viability (Selumetinib + Tozasertib; first compound 0.06325 µM): 0.301
- relative viability (Selumetinib + Tozasertib; first compound 0.2 µM): 0.224
- relative viability (Selumetinib + Tozasertib; first compound 0.6325 µM): 0.31
- relative viability (Venetoclax + Decitabine; first compound 0.01 µM): 0.322
- relative viability (Venetoclax + Decitabine; first compound 0.03162 µM): 0.298
- relative viability (Venetoclax + Decitabine; first compound 0.1 µM): 0.337
- relative viability (Venetoclax + Decitabine; first compound 0.3162 µM): 0.316
- relative viability (Venetoclax + Decitabine; first compound 1 µM): 0.317

Cell Line: NCI-H647
- relative viability (Venetoclax + Crizotinib; first compound 0.01 µM): 0.803
- relative viability (Venetoclax + Crizotinib; first compound 0.03162 µM): 1.35
- relative viability (Venetoclax + Crizotinib; first compound 0.3162 µM): 0.974
- relative viability (Venetoclax + Crizotinib; first compound 1 µM): 0.722
- relative viability (Selumetinib + Vorinostat; first compound 0.02 µM): 0.697
- relative viability (Selumetinib + Vorinostat; first compound 0.06325 µM): 0.38
- relative viability (Selumetinib + Vorinostat; first compound 0.2 µM): 0.727
- relative viability (Selumetinib + Vorinostat; first compound 0.6325 µM): 0.712
- relative viability (Selumetinib + Tozasertib; first compound 0.02 µM): 0.409
- relative viability (Selumetinib + Tozasertib; first compound 0.06325 µM): 0.168
- relative viability (Selumetinib + Tozasertib; first compound 0.2 µM): 0.319
- relative viability (Selumetinib + Tozasertib; first compound 0.6325 µM): 0.358
- relative viability (Venetoclax + Decitabine; first compound 0.01 µM): 0.379
- relative viability (Venetoclax + Decitabine; first compound 0.03162 µM): 0.562
- relative viability (Venetoclax + Decitabine; first compound 0.1 µM): 0.461
- relative viability (Venetoclax + Decitabine; first compound 0.3162 µM): 0.424
- relative viability (Venetoclax + Decitabine; first compound 1 µM): 0.332

Cell Line: NCI-H1915
- relative viability (Venetoclax + Crizotinib; first compound 0.01 µM): 0.882
- relative viability (Venetoclax + Crizotinib; first compound 0.03162 µM): 0.862
- relative viability (Venetoclax + Crizotinib; first compound 0.1 µM): 0.811
- relative viability (Venetoclax + Crizotinib; first compound 0.3162 µM): 0.836
- relative viability (Venetoclax + Crizotinib; first compound 1 µM): 0.805
- relative viability (Selumetinib + Vorinostat; first compound 0.02 µM): 0.598
- relative viability (Selumetinib + Vorinostat; first compound 0.06325 µM): 0.492
- relative viability (Selumetinib + Vorinostat; first compound 0.2 µM): 0.504
- relative viability (Selumetinib + Vorinostat; first compound 0.6325 µM): 0.377
- relative viability (Selumetinib + Tozasertib; first compound 0.02 µM): 0.428
- relative viability (Selumetinib + Tozasertib; first compound 0.06325 µM): 0.568
- relative viability (Selumetinib + Tozasertib; first compound 0.2 µM): 0.319
- relative viability (Selumetinib + Tozasertib; first compound 0.6325 µM): 0.303
- relative viability (Venetoclax + Decitabine; first compound 0.01 µM): 0.23
- relative viability (Venetoclax + Decitabine; first compound 0.03162 µM): 0.279
- relative viability (Venetoclax + Decitabine; first compound 0.1 µM): 0.258
- relative viability (Venetoclax + Decitabine; first compound 0.3162 µM): 0.258
- relative viability (Venetoclax + Decitabine; first compound 1 µM): 0.258

Cell Line: NCI-H2087
- relative viability (Venetoclax + Crizotinib; first compound 0.01 µM): 0.931
- relative viability (Venetoclax + Crizotinib; first compound 0.03162 µM): 0.805
- relative viability (Venetoclax + Crizotinib; first compound 0.1 µM): 1.11
- relative viability (Venetoclax + Crizotinib; first compound 0.3162 µM): 1.03
- relative viability (Venetoclax + Crizotinib; first compound 1 µM): 0.863
- relative viability (Selumetinib + Vorinostat; first compound 0.02 µM): 0.582
- relative viability (Selumetinib + Vorinostat; first compound 0.06325 µM): 0.258
- relative viability (Selumetinib + Vorinostat; first compound 0.2 µM): 0.514
- relative viability (Selumetinib + Vorinostat; first compound 0.6325 µM): 0.445
- relative viability (Selumetinib + Tozasertib; first compound 0.02 µM): 0.194
- relative viability (Selumetinib + Tozasertib; first compound 0.06325 µM): 0.211
- relative viability (Selumetinib + Tozasertib; first compound 0.2 µM): 0.166
- relative viability (Selumetinib + Tozasertib; first compound 0.6325 µM): 0.147
- relative viability (Venetoclax + Decitabine; first compound 0.01 µM): 0.316
- relative viability (Venetoclax + Decitabine; first compound 0.03162 µM): 0.335
- relative viability (Venetoclax + Decitabine; first compound 0.1 µM): 0.267
- relative viability (Venetoclax + Decitabine; first compound 0.3162 µM): 0.23
- relative viability (Venetoclax + Decitabine; first compound 1 µM): 0.29

Cell Line: NCI-H2085
- relative viability (Venetoclax + Crizotinib; first compound 0.01 µM): 0.815
- relative viability (Venetoclax + Crizotinib; first compound 0.03162 µM): 0.903
- relative viability (Venetoclax + Crizotinib; first compound 0.1 µM): 0.765
- relative viability (Venetoclax + Crizotinib; first compound 0.3162 µM): 1.02
- relative viability (Venetoclax + Crizotinib; first compound 1 µM): 0.745
- relative viability (Selumetinib + Vorinostat; first compound 0.02 µM): 0.76
- relative viability (Selumetinib + Vorinostat; first compound 0.06325 µM): 0.757
- relative viability (Selumetinib + Vorinostat; first compound 0.2 µM): 0.739
- relative viability (Selumetinib + Vorinostat; first compound 0.6325 µM): 0.718
- relative viability (Selumetinib + Tozasertib; first compound 0.02 µM): 0.737
- relative viability (Selumetinib + Tozasertib; first compound 0.06325 µM): 0.592
- relative viability (Selumetinib + Tozasertib; first compound 0.2 µM): 0.552
- relative viability (Selumetinib + Tozasertib; first compound 0.6325 µM): 0.593
- relative viability (Venetoclax + Decitabine; first compound 0.01 µM): 0.549
- relative viability (Venetoclax + Decitabine; first compound 0.03162 µM): 0.59
- relative viability (Venetoclax + Decitabine; first compound 0.1 µM): 0.582
- relative viability (Venetoclax + Decitabine; first compound 0.3162 µM): 0.566
- relative viability (Venetoclax + Decitabine; first compound 1 µM): 0.565
